≈ marks a conversion by molar mass, not a printed value.
Key:
[1] = test system: Staphylococcus aureus ATCC 29213; test: Broth microdilution MIC/MBC; settings: ATCC29213
[2] = test system: A549 cell line; test: MTT cytotoxicity assay; assay type: cell-based
Protocol: (§1) Among all the newly synthesized compounds, four compounds designated as: 14, 20, 21 and 27 were selected for further testing of their cytotoxic properties at the doses of 10, 25, 50, 75 and 100 µM. The cytotoxic properties of the above compounds were tested on the cancer cell lines, i.e., A549 (ECACC 86012804) (non-small-cell lung cancer), T47D (ECACC 85102201) (breast cancer), HeLa (ATCC® CCL-2™) (cervical cancer) and normal line L929 (NCTC clone 929, ATCC® CCL-1™) (mouse fibroblasts) using the MTT test for 24- and 48 h cultures.
(§2) A549 (ECACC 86012804) (non-small-cell lung cancer) and T47D (ECACC 85102201) (breast cancer) were obtained from ECACC and propagated in Dulbecco’s Minimal Essential Medium, supplemented with 2 mM of glutamine, antibiotics ([…] streptomycin, 1% of 100 U/L penicillin) and 10% Fetal Bovine Serum. HeLa (ATCC® CCL-2™) (cervical cancer) and L929 (NCTC clone 929, ATCC® CCL-1™) (mouse fibroblasts) cell lines were obtained from ATCC and propagated in the Eagle Minimal Essential Medium supplemented with antibiotics ([…] streptomycin, 1% of 100 U/L penicillin) and with 10% and 5% FBS, respectively. The cell line was routinely grown in 75 cm^2 tissue culture flasks and kept in an incubator (humidified atmosphere of 5% CO2 at 37 °C). All examined cell lines were tested against mycoplasma contamination with microbiological assays.
(§3) The cell viability of tested compounds (14, 20, 21 and 27) was assessed by the MTT assay. In brief, the exponentially growing cells were plated in 100 μL/well in 96-well plates. After 24 h culturing, the cells were treated with different concentrations of compounds (range 10–100 μM). After 24 and 48 h of incubation, 10 μL of 5 mg/mL MTT was added to each well and the plates were incubated at 37 °C for additional 4 h. The medium was subsequently removed, the purple-colored precipitates of formazan were dissolved in 100 μL of DMSO. The color absorbance was recorded at 570 nm using a BioTek model EPOCH ELISA plate reader. All experiments were performed in triplicate. The absorbance values were in the range of linearity of the Lambert–Beer law.

[3] = test system: HeLa cell line; test: MTT cytotoxicity assay; assay type: cell-based
Protocol: as §1, §2, §3

[4] = test system: T47D cell line; test: MTT cytotoxicity assay; assay type: cell-based
Protocol: as §1, §2, §3

`O=C(N/N=C/c1cc(I)cc(I)c1O)c1ccccc1I` [Compound 14, N-[(3,5-diiodo-2-hydroxyphenyl)methylidene]-2-iodobenzohydrazide] was tested. Which MBC [1] did it give?
The MBC was 500 µg/mL (≈ 809 µM).

And the MIC [1]?
Its MIC is 125 µg/mL (≈ 202 µM).

What about the cell proliferation ([2]; A549, 24h, 10 µM, Repeat No 1) of the same molecule?
The cell proliferation was 86%.

What about the cell proliferation ([2]; A549, 24h, 10 µM, Repeat No 2) of the same molecule?
The cell proliferation was 77%.

And the cell proliferation ([2]; A549, 24h, 25 µM, Repeat No 1)?
The cell proliferation was 103%.

And the cell proliferation ([2]; A549, 24h, 25 µM, Repeat No 2)?
The cell proliferation was 98%.

What about the cell proliferation ([2]; A549, 24h, 50 µM, Repeat No 1) of the same molecule?
Its cell proliferation is 89%.

What about the cell proliferation ([2]; A549, 24h, 50 µM, Repeat No 2) of the same molecule?
Its cell proliferation is 84%.

What about the cell proliferation ([2]; A549, 24h, 75 µM, Repeat No 1) of the same molecule?
Its cell proliferation is 87%.

And the cell proliferation ([2]; A549, 24h, 75 µM, Repeat No 2)?
The cell proliferation was 89%.

What about the cell proliferation ([2]; A549, 24h, 100 µM, Repeat No 1) of the same molecule?
Its cell proliferation is 82%.

And the cell proliferation ([2]; A549, 24h, 100 µM, Repeat No 2)?
Its cell proliferation is 74%.

And the cell proliferation ([2]; A549, 48h, 10 µM, Repeat No 1)?
Its cell proliferation is 93%.

What about the cell proliferation ([2]; A549, 48h, 10 µM, Repeat No 2) of the same molecule?
The cell proliferation was 79%.

What about the cell proliferation ([2]; A549, 48h, 25 µM, Repeat No 1) of the same molecule?
Its cell proliferation is 87%.

What about the cell proliferation ([2]; A549, 48h, 25 µM, Repeat No 2) of the same molecule?
Its cell proliferation is 91%.

And the cell proliferation ([2]; A549, 48h, 50 µM, Repeat No 1)?
The cell proliferation was 91%.

What about the cell proliferation ([2]; A549, 48h, 50 µM, Repeat No 2) of the same molecule?
The cell proliferation was 83%.

And the cell proliferation ([2]; A549, 48h, 75 µM, Repeat No 1)?
Its cell proliferation is 89%.

And the cell proliferation ([2]; A549, 48h, 75 µM, Repeat No 2)?
Its cell proliferation is 89%.

What about the cell proliferation ([2]; A549, 48h, 100 µM, Repeat No 1) of the same molecule?
Its cell proliferation is 90%.

What about the cell proliferation ([2]; A549, 48h, 100 µM, Repeat No 2) of the same molecule?
Its cell proliferation is 96%.

What about the cell proliferation ([3]; 24h, 10 µM, Repeat No 1) of the same molecule?
The cell proliferation was 88%.

And the cell proliferation ([3]; 24h, 10 µM, Repeat No 2)?
The cell proliferation was 81%.

And the cell proliferation ([3]; 24h, 25 µM, Repeat No 1)?
The cell proliferation was 93%.

What about the cell proliferation ([3]; 24h, 25 µM, Repeat No 2) of the same molecule?
Its cell proliferation is 91%.

What about the cell proliferation ([3]; 24h, 50 µM, Repeat No 1) of the same molecule?
Its cell proliferation is 88%.

And the cell proliferation ([3]; 24h, 50 µM, Repeat No 2)?
The cell proliferation was 82%.

What about the cell proliferation ([3]; 24h, 75 µM, Repeat No 1) of the same molecule?
Its cell proliferation is 98%.

What about the cell proliferation ([3]; 24h, 75 µM, Repeat No 2) of the same molecule?
Its cell proliferation is 89%.

What about the cell proliferation ([3]; 24h, 100 µM, Repeat No 1) of the same molecule?
Its cell proliferation is 82%.

What about the cell proliferation ([3]; 24h, 100 µM, Repeat No 2) of the same molecule?
The cell proliferation was 89%.

And the cell proliferation ([3]; 48h, 10 µM, Repeat No 1)?
Its cell proliferation is 76%.

And the cell proliferation ([3]; 48h, 10 µM, Repeat No 2)?
The cell proliferation was 79%.

And the cell proliferation ([3]; 48h, 25 µM, Repeat No 1)?
Its cell proliferation is 82%.

What about the cell proliferation ([3]; 48h, 25 µM, Repeat No 2) of the same molecule?
The cell proliferation was 89%.

And the cell proliferation ([3]; 48h, 50 µM, Repeat No 1)?
Its cell proliferation is 85%.

And the cell proliferation ([3]; 48h, 50 µM, Repeat No 2)?
The cell proliferation was 84%.

What about the cell proliferation ([3]; 48h, 75 µM, Repeat No 1) of the same molecule?
The cell proliferation was 77%.

What about the cell proliferation ([3]; 48h, 75 µM, Repeat No 2) of the same molecule?
The cell proliferation was 71%.

What about the cell proliferation ([3]; 48h, 100 µM, Repeat No 1) of the same molecule?
The cell proliferation was 81%.

What about the cell proliferation ([3]; 48h, 100 µM, Repeat No 2) of the same molecule?
Its cell proliferation is 93%.

What about the cell proliferation ([4]; 24h, 10 µM, Repeat No 1) of the same molecule?
Its cell proliferation is 86%.

And the cell proliferation ([4]; 24h, 10 µM, Repeat No 2)?
The cell proliferation was 89%.

What about the cell proliferation ([4]; 24h, 25 µM, Repeat No 1) of the same molecule?
Its cell proliferation is 71%.

And the cell proliferation ([4]; 24h, 25 µM, Repeat No 2)?
The cell proliferation was 74%.

What about the cell proliferation ([4]; 24h, 50 µM, Repeat No 1) of the same molecule?
Its cell proliferation is 79%.

What about the cell proliferation ([4]; 24h, 50 µM, Repeat No 2) of the same molecule?
The cell proliferation was 75%.

What about the cell proliferation ([4]; 24h, 75 µM, Repeat No 1) of the same molecule?
Its cell proliferation is 87%.

And the cell proliferation ([4]; 24h, 75 µM, Repeat No 2)?
Its cell proliferation is 80%.

What about the cell proliferation ([4]; 24h, 100 µM, Repeat No 1) of the same molecule?
Its cell proliferation is 79%.

What about the cell proliferation ([4]; 24h, 100 µM, Repeat No 2) of the same molecule?
The cell proliferation was 73%.

What about the cell proliferation ([4]; 48h, 10 µM, Repeat No 1) of the same molecule?
Its cell proliferation is 71%.

And the cell proliferation ([4]; 48h, 10 µM, Repeat No 2)?
The cell proliferation was 79%.

And the cell proliferation ([4]; 48h, 25 µM, Repeat No 1)?
The cell proliferation was 81%.

And the cell proliferation ([4]; 48h, 25 µM, Repeat No 2)?
The cell proliferation was 79%.

And the cell proliferation ([4]; 48h, 50 µM, Repeat No 1)?
The cell proliferation was 81%.

And the cell proliferation ([4]; 48h, 50 µM, Repeat No 2)?
The cell proliferation was 79%.

And the cell proliferation ([4]; 48h, 75 µM, Repeat No 1)?
Its cell proliferation is 72%.

And the cell proliferation ([4]; 48h, 75 µM, Repeat No 2)?
The cell proliferation was 69%.

And the cell proliferation ([4]; 48h, 100 µM, Repeat No 1)?
Its cell proliferation is 74%.

And the cell proliferation ([4]; 48h, 100 µM, Repeat No 2)?
Its cell proliferation is 69%.
